For data set [1], the system named is mice with diet-induced obesity. Conditions: cited from earlier work.
A further data set concerns the target T1, human NNMT (Homo sapiens, UniProt P40261).
T1 sequence (P40261 1-264): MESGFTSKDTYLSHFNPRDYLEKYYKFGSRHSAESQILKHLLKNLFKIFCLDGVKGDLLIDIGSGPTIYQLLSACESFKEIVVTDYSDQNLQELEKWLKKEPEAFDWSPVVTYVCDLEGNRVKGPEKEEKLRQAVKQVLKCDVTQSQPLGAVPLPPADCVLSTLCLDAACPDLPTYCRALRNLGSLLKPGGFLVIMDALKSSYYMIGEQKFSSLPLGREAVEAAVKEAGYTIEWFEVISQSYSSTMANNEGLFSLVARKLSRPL
In words: Fluorescence-based NNMT enzymatic assay (human enzyme). The class given is biochemical. The conditions noted are these: for IC50: read-out: hNNMT IC50; for reduction in potency on hNNMT: relative to (1). Here is the method: (§1) Experimental Procedures S2: Fluorescence-based NNMT enzymatic assay
(§2) NNMT activity was measured by fluorescence based assay. The product MNA formed in the reaction reacts with acetophenone in the presence of KOH and formic acid and forms a fluorescent product 2, 7- naphthyridine. The fluorescence intensity measured with excitation at 375nm and emission at 430nm. Inhibitors were screened using human, mouse and monkey NNMT enzymes. Different concentrations of inhibitors were pre-incubated along with 5ng/well of human NNMT enzyme and 3.42ng/well of mouse NNMT enzyme for 30 minutes at room temperature. Reaction was initiated by addition of SAM and nicotinamide mixture (7µM, 20µM, 8µM SAM and 6µM, 20µM, 9µM nicotinamide for human, mouse and monkey NNMT assays respectively) and incubated for 60 minutes at 37°C. The final assay reaction mixture contained a buffer of 100mM Tris Hcl pH 7.5, 0.04% BSA, 2mM Dithiothreitol and 1% DMSO. The reaction was terminated by addition of Ethanol: Acetophenone mix (75% ethanol: 25% Acetophenone) and 5M potassium Hydroxide prepared with 50% Ethanol. The reaction was incubated for 15 minutes followed by addition of 100µl of 60% formic acid and further incubation for 60 minutes at room temperature. A fluorescent product 2, 7- naphthyridine was measured in a Tecan reader with excitation at 375nm and emission at 430nm. The IC50 values were determined by fitting the inhibition curves (percent inhibition versus inhibitor concentration) using a four parametric sigmoidal dose response in graph pad prism. […]

A further data set addresses T2, mouse NNMT (Mus musculus, UniProt O55239).
T2 sequence (O55239 1-264): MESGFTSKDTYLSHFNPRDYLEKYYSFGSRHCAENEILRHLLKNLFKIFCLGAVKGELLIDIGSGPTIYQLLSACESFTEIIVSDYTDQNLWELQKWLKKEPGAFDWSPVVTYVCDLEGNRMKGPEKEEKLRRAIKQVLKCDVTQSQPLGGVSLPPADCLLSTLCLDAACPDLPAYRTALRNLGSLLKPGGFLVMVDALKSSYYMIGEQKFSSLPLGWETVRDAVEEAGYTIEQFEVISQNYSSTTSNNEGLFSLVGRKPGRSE
The data set is described as follows: Fluorescence-based NNMT enzymatic assay (mouse enzyme). The class given is biochemical. The conditions noted are these: for IC50: read-out: mNNMT IC50. The protocol:
as §1, §2

A short description of data set [2]: Metabolic stability in rat liver microsomes. The class given is in vitro ADME. Conditions: read-out: RLM % Remaining at 1 h. (In general: Liver microsomes are a subcellular fraction often used to study metabolism.)
Data set [3] can be described thus: Metabolic stability in mouse liver microsomes. The class given is in vitro ADME. The conditions noted are these: for remaining at 1 h: mouse liver microsomes, read-out: MLM % Remaining at 1 h; for MLM: Table 3, mouse liver microsome data, head HLM/MLM without unit. Here is the method:
(§3) Experimental Procedures S3: Metabolic stability in human and mouse liver microsomes
(§4) These profiling studies were carried out as described in Mullangi R. et. al. Preclinical assessment of
(§5) ulixertinib, a novel ERK1/2 inhibitor, ADMET & DMPK, 2017, 212-223;

The nature of data set [4]: Metabolic stability in human liver microsomes. Details: HLM: unit not given beside the values. The class given is in vitro ADME. The conditions noted are these: for remaining at 1 h: human liver microsomes, read-out: HLM % Remaining at 1 h; for HLM: Table 3, human liver microsome data, head HLM/MLM without unit. Here is the method:
as §3, §4, §5

Read-outs that look alike come from different tables or passages of the source. Where only a bound is given, the exact number is not on record here.

Data on 27 compounds can be found in publication PMC7918612, “Novel Inhibitors of Nicotinamide-N-Methyltransferase for the Treatment of Metabolic Disorders” (Molecules, 2021).

For orientation: IC50 means the midpoint of a concentration-inhibition curve. In general, fraction remaining refers to what is left of the initial amount, in per cent.

Turning to 5-amino-1-methylquinoline, in data set [1], the body weight entry is on record as “reduced body weight”, the glucose tolerance entry is on record as “improved glucose tolerance” and the insulin sensitivity entry is recorded as “higher insulin sensitivity”.
Take `COc1ccc(-c2cn(C[C@](C)(O)C(=O)N3CCN(c4cccc5cnccc45)CC3)nc2C)cc1` (stereo in doubt) [Compound 12]: on human NNMT, the “hNNMT potency, in words” value was “nanomolar potency” and the IC50 was found to be 8 nM. At mouse NNMT, the “mNNMT potency, in words” value is “nanomolar potency” and the IC50 is 0.8 nM.
As for `COc1ccc(C(N)=O)cn1` [6-methoxynicotinamide], in data set [1], the body weight entry is “reduced body weight”, the glucose tolerance result was “improved glucose tolerance” and the insulin sensitivity result was “higher insulin sensitivity”.
With `Cc1nn(CC(C)(O)C(=O)N2CCN(c3cccc4cnccc34)CC2)cc1-c1ccccc1` (stereo not shown) [Compound 1], the IC50 on human NNMT worked out at 260 nM; at mouse NNMT it was 840 nM.
On to `CCn1c(=N)n2c3c(cccc31)CCC2` [Compound 3], for which the mode of inhibition result at human NNMT (competition with substrates nicotinamide / SAM) is listed as “competitive inhibitors either of nicotinamide alone”. Moreover, the IC50 at human NNMT turned out to be 200 nM; on mouse NNMT, 500 nM.
On to `Cc1nn(CCC(=O)N2CCN(c3cccc4cnccc34)CC2)cc1-c1ccccc1` [Compound 6], for which, at human NNMT, the IC50 amounted to 1670 nM and the “reduction in potency on hNNMT” value was “six-fold reduction”. The IC50 on mouse NNMT worked out at 2200 nM. For the same compound, the “reduction in potency on mouse NMMT (mNNMT)” value on mouse NNMT (relative to (1)) was 2.5 fold.
With `Cc1nn(CC(C)(O)C(=O)N2CCN(c3ccc4cnccc4c3)CC2)cc1-c1cccc(F)c1` (stereo not shown) [Compound 8], at human NNMT, the “hNNMT potency, in words” value is “completely lost hNNMT activity”. Besides, the IC50 at human NNMT is > 10000 nM. For the same compound, the amount remaining at 1 h in data set [2], in data set [3] and in data set [4] was < 5% in each case.
Consider `Cc1nn(CC(O)C(=O)N2CCN(c3cccc4cnccc34)CC2)cc1-c1cccc(F)c1.O=C(O)C(F)(F)F` (stereo not shown) [Compound 9], for which, at human NNMT, the IC50 is 880 nM and the “reduction in potency on hNNMT” value is “three-fold reduction”. For the same compound, the concentration for half-maximal inhibition (IC50) at mouse NNMT was 2430 nM.
In the case of `Cc1nn(CC(C)(O)C(=O)N2CCN(c3cccc4cnccc34)CC2)cc1-c1ccc(F)c(F)c1` (stereo not shown) [Compound 10], the IC50 was 290 nM on human NNMT and > 3000 nM at mouse NNMT. The fraction remaining at 1 h in data set [3] is < 5%; in data set [4], 7%.
For the compound `Cc1nn(CC(C)(O)C(=O)N2CCN(c3c(F)ccc4cnccc34)CC2)cc1-c1cccc(F)c1` (stereo not shown) [Compound 11], at human NNMT, the “hNNMT potency, in words” value is given as “retains potency”. Further, the IC50 is 200 nM at human NNMT and 1870 nM at mouse NNMT. In addition, the “mNNMT potency, in words” value on mouse NNMT was “retains potency”. Besides, the amount remaining at 1 h in data set [3] and in data set [4] was < 5% in each case.
In the case of `Cc1nn(CC(C)(O)C(=O)N2CCN(c3c(C)sc4cnccc34)CC2)cc1-c1cccc(F)c1` (stereo not shown) [Compound 14], the values for the IC50 on human NNMT and on mouse NNMT were 490 nM and 3480 nM, respectively. In addition, the fraction remaining at 1 h in data set [3] and in data set [4] was < 5% each time.
As to `Cc1nn(CC(C)(O)C(=O)N2CCN(c3cccc4cnncc34)CC2)cc1-c1cccc(F)c1` (stereo not shown) [Compound 15], the IC50 at human NNMT was found to be 790 nM; on mouse NNMT, 5100 nM. Moreover, the fraction remaining at 1 h in data set [2], in data set [3] and in data set [4] was < 5% in each case.
Regarding `Cc1nn(CC(C)(O)C(=O)N2CCN(c3cccc4cncnc34)CC2)cc1-c1cccc(F)c1` (stereo not shown) [Compound 16], the IC50 on human NNMT is 1100 nM; on mouse NNMT, 1630 nM. Besides, the amount remaining at 1 h in data set [2], in data set [3] and in data set [4] was < 5% in each case.
On to `Cc1nn(CC(C)(O)C(=O)N2CCN(c3cnc4cnccn34)CC2)cc1-c1cccc(F)c1` (stereo not shown) [Compound 17], for which, on human NNMT, the IC50 was > 3000 nM. The results for the amount remaining at 1 h in data set [2], in data set [3] and in data set [4] were < 5%, 8% and 27%, respectively.
Taken in the same sequence, the figures for `Cc1nn(CC(C)(O)C(=O)N2CCN(c3ccc4c(cnn4Cc4ccccc4)c3)CC2)cc1-c1cccc(F)c1` (stereo not shown) [Compound 18] were > 30000 nM, < 5%, 30% and 35%.
Regarding `Cc1nn(CC(C)(O)C(=O)N2CCN(c3ccc4[nH]ncc4c3)CC2)cc1-c1cccc(F)c1` (stereo not shown) [Compound 19], the IC50 on human NNMT was > 10000 nM.
With `Cc1nn(CC(C)(O)C(=O)N2CCN(c3cccc4[nH]ncc34)CC2)cc1-c1cccc(F)c1` (stereo not shown) [Compound 20], the IC50 at human NNMT is > 3000 nM. Further, the amount remaining at 1 h in data set [3] was < 5%; in data set [4], 18%.
As to `Cc1nn(CC(C)(O)C(=O)N2CCN(c3cccc4c(=O)[nH]ccc34)CC2)cc1-c1cccc(F)c1` (stereo not shown) [Compound 22], the “hNNMT potency, in words” value on human NNMT is listed as “not active”. Also, the IC50 on human NNMT is > 30000 nM. For the same compound, the share remaining at 1 h is 31% in data set [2], < 5% in data set [3] and 16% in data set [4].
Regarding `Cc1nn(CC(C)(O)C(=O)N2CCN(c3cccc4c3OCC(=O)N4)CC2)cc1-c1cccc(F)c1` (stereo not shown) [Compound 24], the IC50 at human NNMT is > 10000 nM. Also, the fraction remaining at 1 h in data set [3] and in data set [4] was < 5% in each case.
Turning to `Cc1nn(CC(C)(O)C(=O)N2CCC(c3cccc4[nH]c(=O)ccc34)CC2)cc1-c1cccc(F)c1` (stereo not shown) [Compound 25], the figures for the IC50 at human NNMT (Table 3) and on mouse NNMT (Table 3) were 750 nM and > 3000 nM, respectively. Moreover, at mouse NNMT (compared to (21)), the “reduction in mNNMT potency” value is reported as “two-fold reduction”. Also, the MLM in data set [3] is recorded as < 5. Also, the HLM in data set [4] was 17.
Turning to `Cc1nn(CC(C)(O)C(=O)N2CCC(C3=CC=CC4NC(=O)C=CC34)C2)cc1-c1cccc(F)c1` (stereo not shown) [Compound 26], the “hNNMT potency, in words” value on human NNMT was “substantial loss of potency”. The IC50 at human NNMT (Table 3) was > 10000 nM. Moreover, the MLM in data set [3] is reported as < 5. The same compound showed an HLM in data set [4] of 12.
As for `Cc1nn(CC(C)(O)C(=O)N2CC(c3cccc4[nH]c(=O)ccc34)C2)cc1-c1cccc(F)c1` (stereo not shown) [Compound 27], the “hNNMT potency, in words” value at human NNMT was “substantial loss of potency”. The IC50 at human NNMT (Table 3) is > 30000 nM.
For `Cc1nn(CC(C)(O)C(=O)N2CCCN(c3cccc4[nH]c(=O)ccc34)CC2)cc1-c1cccc(F)c1` (stereo not shown) [Compound 28], the “hNNMT potency, in words” value at human NNMT is “substantial loss of potency”. Also, the results for the IC50 on human NNMT (Table 3) and at mouse NNMT (Table 3) were > 3000 nM and > 30000 nM, respectively.
On to `Cc1nn(CC(C)(O)C(=O)N2CC(c3cccc4cnccc34)C2)cc1-c1cccc(F)c1` (stereo not shown) [Compound 29], for which the IC50 on human NNMT (Table 3) was > 30000 nM. Besides, in data set [3], the MLM is reported as <5/<5. Moreover, in data set [4], the HLM is given as <5/<5.
As to `Cc1nn(CC(C)(O)C(=O)N2CCC(O)(c3cccc4[nH]c(=O)ccc34)CC2)cc1-c1cccc(F)c1` (stereo not shown) [Compound 30], the “hNNMT potency, in words” value on human NNMT was “inactive”. Besides, the IC50 at human NNMT (Table 3) is > 10000 nM. Moreover, the MLM in data set [3] is <5/<5. Besides, the HLM in data set [4] was <5/<5.
`Cc1nn(CC(C)(O)C(=O)N2CCC(O)(c3cccc4c[n+]([O-])ccc34)CC2)cc1-c1cccc(F)c1` (stereo not shown) [Compound 32]: the “hNNMT potency, in words” value on human NNMT was “completely lost NNMT inhibition”. Further, at human NNMT (Table 3), the IC50 is > 30000 nM. Moreover, in data set [3], the MLM amounted to 32. Moreover, the “metabolic stability, in words” value in data set [3] (mice) and in data set [4] (humans) was “improved metabolic stability” throughout. Further, the HLM in data set [4] is given as 72.
Take `CC(O)(C/N=c1/sc2cccc3c2n1CCC3)C(=O)N1CCN(c2cccc3cnccc23)CC1` (stereo not shown) [Compound 33]: the IC50 came to 2500 nM at human NNMT and 3000 nM on mouse NNMT.
